Earlier results as cited in publication PMC6843717 (ACS Omega, 2019).

Conditions: cited from earlier work

Compound: O=c1cc(CN2CCOCC2)occ1OCCCCCSc1ccnc2cc(C(F)(F)F)ccc12 [EHT1864]
- T1/2 (Rac inhibitor, plasma): 1.65 h

Compound: CS(=O)(=O)CCNCc1ccc(-c2ccc3ncnc(Nc4ccc(OCc5cccc(F)c5)c(Cl)c4)c3c2)o1 [lapatinib]
- bioavailability (F) (reported for other anticancer drugs): 43–50%

Compound: CO[C@H]1C[C@@H]2CC[C@@H](C)[C@@](O)(O2)C(=O)C(=O)N2CCCC[C@H]2C(=O)O[C@H]([C@H](C)C[C@@H]2CC[C@@H](OCCO)[C@H](OC)C2)CC(=O)[C@H](C)/C=C(\C)[C@@H](O)[C@@H](OC)C(=O)[C@H](C)C[C@H](C)/C=C/C=C/C=C/1C [everolimus]
- bioavailability (FDA-approved small molecules for advanced breast cancer): ~5%
